Experimental data as given in patent US11680281B2, “Biosynthetic production of steviol glycosides and processes therefore” (Conagen Inc., priority 2016, dated 2023).

B1: CP1: circular permutation of UGT76G1 enzyme (SEQ ID NO: 3) (protein)
chain: MNWQILKEILGKMIKQTKASSGVIWNSFKELEESELETVIREIPAPSFLIPLPKHLTASSSSLLDHDRTVFQWLDQQPPSSVLYVSFGSTSEVDEKDFLEIARGLVDSKQSFLWVVRPGFVKGSTWVEPLPDGFLGERGRIVKWVPQQEVLAHGAIGAFWTHSGWNSTLESVCEGVPMIFSDFGLDQPLNARYMSDVLKVGVYLENGWERGEIANAIRRVMVDEEGEYIRQNARVLKQKADVSLMKGGSSYESLESLVSYISSLENKTETTVRRRRRIILFPVPFQGHINPILQLANVLYSKGFSITIFHTNFNKPKTSNYPHFTFRFILDNDPQDERISNLPTHGPLAGMRIPIINEHGADELRRELELLMLASEEDEEVSCLITDALWYFAQSVADSLNLRRLVLMTSSLFNFHAHVSLPQFDELGYLDPDDKTRLEEQASGFPMLKVKDIKSAYS
modifications: CP1 amino acid sequence

Assays:
[1] = Sensory evaluation (taste test) of rebaudiosides against sucrose controls; format: in vivo; conditions: rebaudioside 300 ppm in bottled water, room temperature; vs 1.0%, 3.0%, 6.0% sucrose (w/v); panel of 13 volunteer human subjects
Method: A sensory evaluation of rebaudiosides was performed using sucrose as a control. The sucrose sample was purchased from Sigma-Aldrich and was used to prepared control samples at three different concentrations of 1.0%, 3.0%, and 6.0% sucrose in bottled water (w/v) at room temperature. The rebaudioside was prepared at 300 ppm for sensory evaluation by adding a corresponding mass into 1000 mL of bottled water. The mixture was stirred at room temperature and the steviol glycoside sample was then evaluated against several control sucrose samples at 1.0%, 3.0%, and 6.0% by a panel of 13 volunteer human subjects.

[2] = relative to table sugar (sucrose); cited from earlier work
[3] = In vitro conversion of Reb D4 to Reb M by recombinant UGT polypeptides, HPLC analysis; format: biochemical; conditions: 10 μg polypeptide, 1 mg/ml Reb D4, 1 mM UDP-glucose, 30° C., 30 min and 1 hr; compared with UGT76G1
Method: In this Example, to confirm the conversion of Reb D4 to rebaudioside M in vitro, the UGT76G1, CP1 and enzyme mutants were assayed using Reb D4 as the steviol glycoside substrate. The recombinant polypeptide (10 μg) was tested in a 200 μL in vitro reaction system. The reaction system contained 50 mM potassium phosphate buffer, pH 7.2, 3 mM MgCl2, 1 mg/ml steviol glycoside substrate, and 1 mM UDP-glucose. The reaction was performed at 30° C. and terminated by adding 200 μL of 1-butanol. The samples were extracted three times with 200 μL of 1-butanol. The pooled fraction was dried and dissolved in 70 μL of 80% methanol for high-performance liquid chromatography (HPLC) analysis. Rebaudioside D4 were used as substrate. HPLC analysis was performed using a Dionex UPLC ultimate 3000 system (Sunnyvale, Calif.), including a quaternary pump, a temperature controlled column compartment, an auto sampler and a UV absorbance detector. Synergi Hydro-RP column with guard column was used for the characterization of steviol glycosides. Acetonitrile in water was used for elution in HPLC analysis. The detection wavelength was 210 nm.

| Molecule | Fold increase in sweetness relative to sucrose [1] [fold] | other results |
| --- | --- | --- |
| C=C1C[C@@]23CC[C@H]4[C@@](C)(CCC[C@@]4(C)C(=O)OC4OC(CO)C(O)C(OC5OC(CO)C(O)C(O)C5O)C4OC4OC(CO)C(O)C(O)C4O)[C@@H]2CC[C@]1(OC1OC(CO)C(O)C(O)C1O)C3 (some centres unmarked) [Reb WB1] | 133 | – |
| C=C1C[C@@]23CC[C@H]4[C@@](C)(CCC[C@@]4(C)C(=O)O[C@@H]4O[C@H](CO)[C@@H](O)[C@H](O)[C@H]4O)[C@@H]2CC[C@]1(O[C@@H]1O[C@H](CO)[C@@H](O)[C@H](O)[C@H]1O[C@@H]1O[C@H](CO)[C@@H](O)[C@H](O)[C@H]1O)C3 [stevioside] | – | sweetness relative to sucrose (times sweeter than sucrose) [2]: 100-150 times |
| C=C1C[C@@]23CC[C@H]4[C@@](C)(CCC[C@@]4(C)C(=O)OC4OC(CO)C(O)C(OC5OC(CO)C(O)C(O)C5O)C4OC4OC(CO)C(O)C(O)C4O)[C@@H]2CC[C@]1(O)C3 (some centres unmarked) [Reb WB2] | 79 | – |
| C=C1C[C@@]23CC[C@H]4[C@@](C)(CCC[C@@]4(C)C(=O)OC4OC(CO)C(O)C(OC5OC(CO)C(O)C(O)C5O)C4OC4OC(CO)C(O)C(O)C4O)[C@@H]2CC[C@]1(OC1OC(CO)C(O)C(O)C1OC1OC(CO)C(O)C(O)C1O)C3 (stereo partly drawn) [Reb D4, 13-[(2-O-β-D-glucopyranosyl-β-D-glucopyranosyl)oxy] ent-kaur-16-en-19-oic acid-[(2-O-β-D-glucopyranosyl-3-O-β-D-glucopyranosyl-β-D-glucopyranosyl) ester]] | 109 | – |
| B1 | – | enzymatic activity, transfer of one glucose to Reb D4 to form Reb M [3]: significantly higher enzymatic activity than UGT76G1 |
